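Briefly, cells in 96-well plates were exposed to five compound concentrations for 48 h, and endpoints were estimated by linear interpolation. TGI: total growth inhibition.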
How the values were obtained:
Experiment in all cases: NCI tumour cell line growth inhibition, 48 h
[1] = system: K-562 leukemia
[2] = system: RPMI-8226 leukemia
[3] = system: SNB-78 CNS
[4] = system: DMS 273 small cell lung
[5] = system: SF-295 CNS
[6] = system: LXFL 529 NSCLC
[7] = system: KM20L2 colon
[8] = system: M14 melanoma
[9] = system: OVCAR-8 ovarian
[10] = system: UACC-257 melanoma
[11] = system: SK-MEL-28 melanoma
[12] = system: CCRF-CEM leukemia
[13] = system: SW-620 colon
[14] = system: HOP-62 NSCLC
[15] = system: HCT-15 colon
[16] = system: NCI-H23 lung
[17] = system: OVCAR-5 ovarian
[18] = system: OVCAR-4 ovarian
[19] = system: HCT-116 colon
[20] = system: IGROV1 ovarian
[21] = system: MOLT-4 leukemia
[22] = system: TK-10 renal
[23] = system: NCI-H522 lung
[24] = system: HOP-18 NSCLC
[25] = system: A549 NSCLC
[26] = system: ACHN renal
[27] = system: U251 CNS
[28] = system: A498 renal
[29] = system: HL-60(TB) leukemia
[30] = system: SR leukemia
[31] = system: SF-539 CNS
[32] = system: 786-0 renal
[33] = system: SNB-75 CNS
[34] = system: DLD-1 colon
[35] = system: HT29 colon
[36] = system: LOX IMVI melanoma
[37] = system: OVCAR-3 ovarian
[38] = system: MALME-3M melanoma
[39] = system: NCI-H460 lung
[40] = system: COLO 205 colon
[41] = system: SN12C renal
[42] = system: KM12 colon
[43] = system: SK-MEL-5 melanoma
[44] = system: UO-31 renal
[45] = system: M19-MEL melanoma
[46] = system: SK-MEL-2 melanoma
[47] = system: UACC-62 melanoma
[48] = system: SNB-19 CNS
[49] = system: RXF 393 renal
[50] = system: DMS 114 small cell lung
[51] = system: MDA-MB-231 breast
[52] = system: HS 578T breast
[53] = system: MDA-N
[54] = system: DU-145 prostate
[55] = system: T-47D breast
[56] = system: NCI-H226 lung
[57] = system: BT-549 breast
[58] = system: HOP-92 NSCLC
[59] = system: CAKI-1 renal
[60] = system: SF-268 CNS
[61] = system: NCI/ADR-RES ovarian
[62] = system: SK-OV-3 ovarian
[63] = system: EKVX NSCLC
[64] = system: HCC-2998 colon
[65] = system: PC-3 prostate
[66] = system: MDA-MB-435
[67] = system: MCF7 breast

## O=C1/C(=C/c2ccccc2)CN(C(=O)C(F)(F)F)C/C1=C\c1ccccc1
[1]
  TGI: > 100 µM
[2]
  TGI: 0.932 µM
[3]
  TGI: 11.4 µM
[4]
  TGI: 2.95 µM
[5]
  TGI: 3.13 µM
[6]
  TGI: 3.26 µM
[7]
  TGI: 4.34 µM
[8]
  TGI: 3.29 µM
[9]
  TGI: 3.37 µM
[10]
  TGI: 3.32 µM
[11]
  TGI: 3.45 µM
[12]
  TGI: 8.03 µM
[13]
  TGI: 1.83 µM
[14]
  TGI: 29.6 µM
[15]
  TGI: 5.33 µM
[16]
  TGI: 4.52 µM
[17]
  TGI: 8.37 µM
[18]
  TGI: 4.72 µM
[19]
  TGI: 1.08 µM
[20]
  TGI: 5.55 µM
[21]
  TGI: 79.6 µM
[22]
  TGI: 13.4 µM
[23]
  TGI: 5.77 µM
[24]
  TGI: 18.4 µM
[25]
  TGI: 12.1 µM
[26]
  TGI: 4.99 µM
[27]
  TGI: 2.95 µM
[28]
  TGI: 4.41 µM
[29]
  TGI: 2.85 µM
[30]
  TGI: 5.48 µM
[31]
  TGI: 4.06 µM
[32]
  TGI: 3.28 µM
[33]
  TGI: 19 µM
[34]
  TGI: 4.27 µM
[35]
  TGI: 3.01 µM
[36]
  TGI: 2.5 µM
[37]
  TGI: 10.7 µM
[38]
  TGI: 15.9 µM
[39]
  TGI: 2.97 µM
[40]
  TGI: 5.11 µM
[41]
  TGI: 3.12 µM
[42]
  TGI: 3.98 µM
[43]
  TGI: 3.26 µM
[44]
  TGI: 4.77 µM
[45]
  TGI: 3.1 µM
[46]
  TGI: 23.1 µM
[47]
  TGI: 3.76 µM
[48]
  TGI: 14.8 µM
[49]
  TGI: 3.63 µM
[50]
  TGI: 3.33 µM

## CC1CSC(=S)N1C(=O)N1C(=S)SCC1C (stereo unspecified)
[1]
  TGI: 60.9 µM
[51]
  TGI: 64.8 µM
[2]
  TGI: 66.2 µM
[52]
  TGI: > 82.9 µM
[3]
  TGI: > 100 µM
[4]
  TGI: 49.5 µM
[5]
  TGI: 98.1 µM
[53]
  TGI: 50.7 µM
[6]
  TGI: > 100 µM
[7]
  TGI: > 100 µM
[8]
  TGI: 53.9 µM
[54]
  TGI: 45.2 µM
[9]
  TGI: 32.3 µM
[55]
  TGI: > 100 µM
[10]
  TGI: 43.4 µM
[11]
  TGI: 41.9 µM
[12]
  TGI: 48.5 µM
[13]
  TGI: 49.4 µM
[14]
  TGI: > 82.8 µM
[15]
  TGI: 34.8 µM
[56]
  TGI: 71.7 µM
[16]
  TGI: 43.1 µM
[17]
  TGI: 64.7 µM
[19]
  TGI: 42.9 µM
[20]
  TGI: 53.3 µM
[21]
  TGI: 81.9 µM
[57]
  TGI: 63.9 µM
[22]
  TGI: 74.8 µM
[58]
  TGI: 73 µM
[23]
  TGI: 26.7 µM
[24]
  TGI: > 100 µM
[25]
  TGI: 91.8 µM
[26]
  TGI: 36.1 µM
[59]
  TGI: 61.7 µM
[27]
  TGI: 53.5 µM
[28]
  TGI: 60.7 µM
[60]
  TGI: 74.6 µM
[29]
  TGI: 88.3 µM
[30]
  TGI: 59.3 µM
[31]
  TGI: 41.4 µM
[32]
  TGI: 53.6 µM
[33]
  TGI: 88.1 µM
[34]
  TGI: 44.4 µM
[35]
  TGI: 73 µM
[61]
  TGI: 41.7 µM
[62]
  TGI: > 100 µM
[63]
  TGI: 63.4 µM
[36]
  TGI: 36.4 µM
[37]
  TGI: 82.3 µM
[38]
  TGI: 45.2 µM
[39]
  TGI: 59 µM
[40]
  TGI: 37.2 µM
[64]
  TGI: > 80.5 µM
[41]
  TGI: 54.4 µM
[42]
  TGI: 84.9 µM
[65]
  TGI: 67.2 µM
[43]
  TGI: 34.8 µM
[44]
  TGI: 58.7 µM
[45]
  TGI: 81.7 µM
[46]
  TGI: 53.2 µM
[47]
  TGI: 27.4 µM
[66]
  TGI: 46.6 µM
[48]
  TGI: > 100 µM
[49]
  TGI: 38.6 µM
[67]
  TGI: 60.5 µM
[50]
  TGI: > 100 µM

## Cc1ccccc1-n1c(=O)sc2c(=O)n(-c3ccccc3)c(=S)[nH]c21
[1]
  TGI: > 100 µM
[2]
  TGI: > 100 µM
[3]
  TGI: > 100 µM
[4]
  TGI: > 100 µM
[5]
  TGI: > 100 µM
[6]
  TGI: > 100 µM
[7]
  TGI: > 100 µM
[8]
  TGI: > 100 µM
[9]
  TGI: > 100 µM
[10]
  TGI: > 100 µM
[11]
  TGI: > 100 µM
[12]
  TGI: > 100 µM
[13]
  TGI: > 100 µM
[14]
  TGI: > 100 µM
[15]
  TGI: > 100 µM
[56]
  TGI: > 100 µM
[16]
  TGI: > 100 µM
[17]
  TGI: > 100 µM
[18]
  TGI: > 100 µM
[19]
  TGI: > 100 µM
[20]
  TGI: > 100 µM
[21]
  TGI: > 100 µM
[58]
  TGI: > 100 µM
[23]
  TGI: > 100 µM
[24]
  TGI: > 100 µM
[25]
  TGI: > 100 µM
[26]
  TGI: > 100 µM
[59]
  TGI: > 100 µM
[27]
  TGI: > 100 µM
[28]
  TGI: > 100 µM
[60]
  TGI: > 100 µM
[29]
  TGI: > 100 µM
[30]
  TGI: > 100 µM
[31]
  TGI: > 100 µM
[32]
  TGI: > 100 µM
[33]
  TGI: > 100 µM
[34]
  TGI: > 100 µM
[35]
  TGI: > 100 µM
[62]
  TGI: > 100 µM
[63]
  TGI: > 100 µM
[37]
  TGI: > 100 µM
[38]
  TGI: > 100 µM
[39]
  TGI: > 100 µM
[40]
  TGI: > 100 µM
[64]
  TGI: > 100 µM
[41]
  TGI: > 100 µM
[42]
  TGI: > 100 µM
[43]
  TGI: > 100 µM
[44]
  TGI: > 100 µM
[45]
  TGI: > 100 µM
[46]
  TGI: > 100 µM
[47]
  TGI: > 100 µM
[48]
  TGI: > 100 µM
[49]
  TGI: > 100 µM
[50]
  TGI: > 100 µM
